Measurements as given in patent publication US8431593B2, “Heteroaryl amide derivatives” (H. Lundbeck A/S, priority 2006, dated 2013).

Molecular target: T1, P2X7 receptor (Homo sapiens, UniProt Q99572)
T1 construct: host or cells: SH-SY5Y
T1 sequence (Q99572 1-595): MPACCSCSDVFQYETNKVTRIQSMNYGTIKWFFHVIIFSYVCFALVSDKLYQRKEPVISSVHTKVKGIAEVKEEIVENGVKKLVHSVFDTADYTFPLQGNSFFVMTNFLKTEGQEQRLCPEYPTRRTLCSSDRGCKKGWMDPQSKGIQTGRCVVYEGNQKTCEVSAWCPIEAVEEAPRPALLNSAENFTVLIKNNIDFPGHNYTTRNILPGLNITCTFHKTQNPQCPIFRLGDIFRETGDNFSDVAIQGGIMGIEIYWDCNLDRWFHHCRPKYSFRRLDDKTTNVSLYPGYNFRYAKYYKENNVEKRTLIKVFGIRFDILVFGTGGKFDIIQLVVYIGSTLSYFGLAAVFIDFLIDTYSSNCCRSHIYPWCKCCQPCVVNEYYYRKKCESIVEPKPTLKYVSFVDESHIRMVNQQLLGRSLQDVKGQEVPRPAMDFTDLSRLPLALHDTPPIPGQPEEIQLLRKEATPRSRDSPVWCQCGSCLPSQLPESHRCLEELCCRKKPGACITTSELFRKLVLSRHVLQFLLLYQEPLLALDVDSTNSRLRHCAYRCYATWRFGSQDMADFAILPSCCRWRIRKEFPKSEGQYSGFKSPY
Test: P2X7 calcium mobilization assay, high throughput, antagonist activity (Example 4A)
Type: cell-based
Conditions: 50% decrease in the fluorescence response of cells exposed to 80 μM of 2′(3′)-O-(4-benzoyl-benzoyl)adenosine 5′-triphosphate; Example 4A; read-out: IC50
Method in brief: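 Dye-loaded cells (100,000/well, seeded previous day) are pre-exposed to compound for an hour at room temperature. Fluorescence maxima are baseline-corrected against no-agonist wells and compared with the averaged agonist-well maximum.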

SMILES	IC50 [nM]
CN1CCCC1CCNC(=O)c1cn2c(C(=O)NCC34CC5CC(CC(C5)C3)C4)cccc2n1 (stereo not shown) [Compound 649, 5-N-(adamantan-1-ylmethyl)-2-N-[2-(1-methylpyrrolidin-2-yl)ethyl]imidazo[1,2-a]pyridine-2,5-dicarboxamide]	< 2000
O=C(NCCN1CCCCC1)c1cn2c(C(=O)NCC34CC5CC(CC(C5)C3)C4)cccc2n1 [Compound 650, 5-N-(adamantan-1-ylmethyl)-2-N-(2-piperidin-1-ylethyl)imidazo[1,2-a]pyridine-2,5-dicarboxamide]	< 2000
CCN(CC)CCNC(=O)c1cn2c(C(=O)NCC34CC5CC(CC(C5)C3)C4)cccc2n1 [Compound 651, 5-N-(adamantan-1-ylmethyl)-2-N-[2-(diethylamino)ethyl]imidazo [1,2-a]pyridine-2,5-dicarboxamide]	< 2000
CC(C)N(CCNC(=O)c1cn2c(C(=O)NCC34CC5CC(CC(C5)C3)C4)cccc2n1)C(C)C [Compound 652, 5-N-(adamantan-1-ylmethyl)-2-N-[2-(diisopropylamino)ethyl]imidazo [1,2-a] pyridine-2,5-dicarboxamide]	< 2000
CC(CN(C)C)NC(=O)c1cn2c(C(=O)NCC34CC5CC(CC(C5)C3)C4)cccc2n1 (stereo not drawn) [Compound 653, 5-N-(adamantan-1-ylmethyl)-2-N-[2-(dimethylamino)-l-methylethyl] imidazo[1,2-a]pyridine-2,5-dicarboxamide]	< 2000
O=C(NCCCN1CCOCC1)c1cn2c(C(=O)NCC34CC5CC(CC(C5)C3)C4)cccc2n1 [Compound 654, 5-N-(adamantan-1-ylmethyl)-2-N-(3-morpholin-4-ylpropyl)imidazo [1,2-a]pyridine-2,5-dicarboxamide]	< 2000
O=C(NCc1cccnc1)c1cn2c(C(=O)NCC34CC5CC(CC(C5)C3)C4)cccc2n1 [Compound 655, 5-N-(adamantan-1-ylmethyl)-2-N-(pyridin-3-ylmethyl) imidazo[1,2-a]pyridine-2,5-dicarboxamide]	< 2000
Cc1cnc(CNC(=O)c2cn3c(C(=O)NCC45CC6CC(CC(C6)C4)C5)cccc3n2)cn1 [Compound 656, 5-N-(adamantan-1-ylmethyl)-2-N-[(5-methylpyrazin-2-yl)methyl]imidazo[1,2-a]pyridine-2,5-dicarboxamide]	< 2000
CCN(CC)CCCNC(=O)c1cn2c(C(=O)NCC34CC5CC(CC(C5)C3)C4)cccc2n1 [Compound 658, 5-N-(adamantan-1-ylmethyl)-2-N-[3-(diethylamino)propyl] imidazo[1,2-a] pyridine-2,5-dicarboxamide]	< 2000
CN1CCC(NC(=O)c2cn3c(C(=O)NCC45CC6CC(CC(C6)C4)C5)cccc3n2)CC1 [Compound 659, 5-N-(adamantan-1-ylmethyl)-2-N-(1-methylpiperidin-4-yl)imidazo[1,2-a]pyridine-2,5-dicarboxamide]	< 2000
O=C(NCCc1ccncc1)c1cn2c(C(=O)NCC34CC5CC(CC(C5)C3)C4)cccc2n1 [Compound 660, 5-N-(adamantan-1-ylmethyl)-2-N-(2-pyridin-4-ylethyl)imidazo[1,2-a]pyridine-2,5-dicarboxamide]	< 2000
O=C(NCc1ccncc1)c1cn2c(C(=O)NCC34CC5CC(CC(C5)C3)C4)cccc2n1 [Compound 661, 5-N-(adamantan-1-ylmethyl)-2-N-(pyridin-4-ylmethyl)imidazo [1,2-a]pyridine-2,5-dicarboxamide]	< 2000
O=C(N[C@@H]1CN2CCC1CC2)c1cn2c(C(=O)NCC34CC5CC(CC(C5)C3)C4)cccc2n1 [Compound 662, 5-N-(adamantan-1-ylmethyl)-2-N-[(3S)-1-azabicyclo[2.2.2]oct-3-yl]imidazo[1,2-a]pyridine-2,5-dicarboxamide]	< 2000
CN1CCCCC1CCNC(=O)c1cn2c(C(=O)NCC34CC5CC(CC(C5)C3)C4)cccc2n1 (stereo not shown) [Compound 664, 5-N-(adamantan-1-ylmethyl)-2-N-[2-(1-methylpiperidin-2-yl)ethyl]imidazo[1,2-a]pyridine-2,5-dicarboxamide]	< 2000
CN1CCCCC1CNC(=O)c1cn2c(C(=O)NCC34CC5CC(CC(C5)C3)C4)cccc2n1 (stereo not shown) [Compound 666, 5-N-(adamantan-1-ylmethyl)-2-N-[(1-methylpiperidin-2-yl)methyl]imidazo[1,2-a]pyridine-2,5-dicarboxamide]	< 2000
CN1C2CCC1CC(NC(=O)c1cn3c(C(=O)NCC45CC6CC(CC(C6)C4)C5)cccc3n1)C2 (stereo not shown) [Compound 667, 5-N-(adamantan-1-ylmethyl)-2-N-(8-methyl-8-azabicyclo[3.2.1]oct-3-yl)imidazo[1,2-a]pyridine-2,5-dicarboxamide]	< 2000

SMILES	IC50 [nM]
CN1CCCC(CNC(=O)c2cn3c(C(=O)NCC45CC6CC(CC(C6)C4)C5)cccc3n2)C1 (stereo not shown) [Compound 668, 5-N-(adamantan-1-ylmethyl)-2-N-[(1-methylpiperidin-3-yl)methyl]imidazo[1,2-a]pyridine-2,5-dicarboxamide]	< 2000
CN(C)C1CCN(C(=O)c2cn3c(C(=O)NCC45CC6CC(CC(C6)C4)C5)cccc3n2)CC1 [Compound 669, N-(adamantan-1-ylmethyl)-2-{[4-(dimethylamino)piperidin-1-yl]carbonyl}imidazo[1,2-a]pyridine-5-carboxamide]	< 2000
CN(C)CCCN(C)C(=O)c1cn2c(C(=O)NCC34CC5CC(CC(C5)C3)C4)cccc2n1 [Compound 670, 5-N-(adamantan-1-ylmethyl)-2-N-[3-(dimethylamino)propyl]-2-N-methylimidazo[1,2-a]pyridine-2,5-dicarboxamide]	< 2000
CN1CCC(N(C)C(=O)c2cn3c(C(=O)NCC45CC6CC(CC(C6)C4)C5)cccc3n2)CC1 [Compound 671, 5-N-(adamantan-1-ylmethyl)-2-N-methyl-2-N-(1-methylpiperidin-4-yl)imidazo[1,2-a]pyridine-2,5-dicarboxamide]	< 2000
CCN(CCN(C)C)C(=O)c1cn2c(C(=O)NCC34CC5CC(CC(C5)C3)C4)cccc2n1 [Compound 672, 5-N-(adamantan-1-ylmethyl)-2-N-[2-(dimethylamino)ethyl]-2-N-ethylimidazo[1,2-a]pyridine-2,5-dicarboxamide]	< 2000
CCN(C)CCN(CC)C(=O)c1cn2c(C(=O)NCC34CC5CC(CC(C5)C3)C4)cccc2n1 [Compound 673, 5-N-(adamantan-1-ylmethyl)-2-N-ethyl-2-N-{2-[ethyl(methyl)amino]ethyl}imidazo[1,2-a]pyridine-2,5-dicarboxamide]	< 2000
CCN(CC)C1CCN(C(=O)c2cn3c(C(=O)NCC45CC6CC(CC(C6)C4)C5)cccc3n2)CC1 [Compound 674, N-(adamantan-1-ylmethyl)-2-{[4-(diethylamino)piperidin-1-yl]carbonyl}imidazo [1,2-a]pyridine-5-carboxamide]	< 2000
CCN(CC)CCN(C)C(=O)c1cn2c(C(=O)NCC34CC5CC(CC(C5)C3)C4)cccc2n1 [Compound 675, 5-N-(adamantan-1-ylmethyl)-2-N-[2-(diethylamino)ethyl]-2-N-methylimidazo[1,2-a]pyridine-2,5-dicarboxamide]	< 2000
CCN(C(=O)c1cn2c(C(=O)NCC34CC5CC(CC(C5)C3)C4)cccc2n1)C1CCN(C)CC1 [Compound 679, 5-N-(adamantan-1-ylmethyl)-2-N-ethyl-2-N-(1-methylpiperidin-4-yl)imidazo[1,2-a]pyridine-2,5-dicarboxamide]	< 2000
CC(C)N(C(=O)c1cn2c(C(=O)NCC34CC5CC(CC(C5)C3)C4)cccc2n1)C1CCN(C)CC1 [Compound 680, 5-N-(adamantan-1-ylmethyl)-2-N-isopropyl-2-N-(1-methylpiperidin-4-yl)imidazo[1,2-a]pyridine-2,5-dicarboxamide]	< 2000
COCCN(C(=O)c1cn2c(C(=O)NCC34CC5CC(CC(C5)C3)C4)cccc2n1)C1CCN(C)CC1 [Compound 681, 5-N-(adamantan-1-ylmethyl)-2-N-(2-methoxyethyl)-2-N-(1-methylpiperidin-4-yl)imidazo[1,2-a]pyridine-2,5-dicarboxamide]	< 2000
O=C(Cc1cn2c(C(=O)NCC34CC5CC(CC(C5)C3)C4)cccc2n1)NC1CN2CCC1CC2 (stereo not shown) [Compound 684, N-(adamantan-1-ylmethyl)-2-[2-(1-azabicyclo[2.2.2]oct-3-ylamino)-2-oxoethyl]imidazo[1,2-a]pyridine-5-carboxamide]	< 2000
O=C(NCC12CC3CC(CC(C3)C1)C2)c1cccc2nc(Cc3nnn[nH]3)cn12 [Compound 685, N-(adamantan-1-ylmethyl)-2-(1H-tetrazol-5-ylmethyl)imidazo[1,2-a]pyridine-5-carboxamide]	< 2000
O=C(O)c1cn2c(C(=O)NCC34CC5CC(CC(C5)C3)C4)cccc2n1 [Compound 686, 5-[(adamantan-1-ylmethyl)carbamoyl] imidazo[1,2-a] pyridine-2-carboxylic acid]	< 2000
CC(C)CC(CNC(=O)c1cccc2nc(CN3CCOCC3)cn12)C1CCCCC1 (stereo not shown) [Compound 687, N-(2-cyclohexyl-4-methylpentyl)-2-(morpholin-4-ylmethyl)imidazo[1,2-a]pyridine-5-carboxamide]	< 2000
